The values below come from patent publication US7285554B2, “Pyrazole derivative” (Astellas Pharma Inc., priority 1997, dated 2007).

SMILES strings stand for the structures.

This experiment deals with IL-2 production from Jurkat cells. Kind of experiment: cells. To be noted: Homo sapiens, read-out: IL-2 production inhibition IC50 value.

Consider `Cc1ncsc1C(=O)Nc1ccc(-n2nc(C(F)(F)F)cc2C(F)(F)F)cc1` [Example 1, 4-methyl-4′-[3,5-bis(trifluoromethyl)-1H-pyrazol-1-yl]thiazole-5-carboxyanilide], for which the IC50 – broadly, the midpoint of a concentration-inhibition curve – is ≤ 1000 nM.

Regarding `Cn1nc(C(F)(F)F)cc1-c1ccc(C(=O)Nc2ccccc2Cl)s1` [Example 5, 2′-chloro-5-(1-methyl-3-trifluoromethyl-1H-pyrazol-5-yl)thiophene-2-carboxyanilide], the IC50 is ≤ 1000 nM.
